# Measurements as given in article PMC5218480 (PLoS ONE, 2017).
# Tested on: MV-4-11 cells
# Experiment: Gene expression microarray analysis (Affymetrix PrimeView) and GSEA
# Format: cell-based, human
# Design: RFU PODN (11730768_x_at) / Fold change /veh PODN (11730768_x_at) / RFU LINC00158 (11744669_a_at) / Fold change /veh LINC00158 (11744669_a_at) / RFU DUSP10 (11751237_a_at) / Fold change /veh DUSP10 (11751237_a_at) / RFU ID3 (11757404_x_at) / Fold change /veh ID3 (11757404_x_at) / RFU PLEKHG5 (11737974_s_at) / Fold change /veh PLEKHG5 (11737974_s_at) / RFU LRRC4B (11730491_at) / Fold change /veh LRRC4B (11730491_at) / RFU GIMAP4 (11747438_a_at) / Fold change /veh GIMAP4 (11747438_a_at) / RFU KRT8 (11758183_x_at) / Fold change /veh KRT8 (11758183_x_at) / RFU CNN1 (11734310_a_at) / Fold change /veh CNN1 (11734310_a_at) / RFU VPS37D (11726825_at) / Fold change /veh VPS37D (11726825_at) / RFU C10orf10 (11716522_x_at) / Fold change /veh C10orf10 (11716522_x_at) / RFU KIR2DL2 /// KIR2DL4 /// KIR2DL5A /// KIR2DL5B /// KIR2DS1 /// KIR2DS2 /// KIR2DS3 /// KIR2DS4 /// KIR3DL3 /// KIR3DL3 /// KIR3DS1 (11738374_at) / Fold change /veh KIR2DL2 /// KIR2DL4 /// KIR2DL5A /// KIR2DL5B /// KIR2DS1 /// KIR2DS2 /// KIR2DS3 /// KIR2DS4 /// KIR3DL3 /// KIR3DL3 /// KIR3DS1 (11738374_at) / RFU C1QL1 (11718748_at) / Fold change /veh C1QL1 (11718748_at) / RFU TMPRSS4 (11747572_a_at) / Fold change /veh TMPRSS4 (11747572_a_at) / RFU HAMP (11756126_x_at) / Fold change /veh HAMP (11756126_x_at) / RFU RNFT2 (11725882_a_at) / Fold change /veh RNFT2 (11725882_a_at) / RFU NR4A2 (11747474_a_at) / Fold change /veh NR4A2 (11747474_a_at) / RFU ABCC12 (11746883_a_at) / Fold change /veh ABCC12 (11746883_a_at) / RFU TMEM136 (11760407_x_at) / Fold change /veh TMEM136 (11760407_x_at) / RFU CLDN22 /// WWC2 (11732394_at) / Fold change /veh CLDN22 /// WWC2 (11732394_at) / RFU HLA-DPB1 (11760878_x_at) / Fold change /veh HLA-DPB1 (11760878_x_at) / RFU SPINT1 (11716480_a_at) / Fold change /veh SPINT1 (11716480_a_at) / RFU GAP43 (11754022_s_at) / Fold change /veh GAP43 (11754022_s_at) / RFU A4GNT (11735810_at) / Fold change /veh A4GNT (11735810_at) / RFU PRB3 (11715151_x_at) / Fold change /veh PRB3 (11715151_x_at) / RFU TUBB4B (11761932_at) / Fold change /veh TUBB4B (11761932_at) / RFU CAPN14 (11732068_a_at) / Fold change /veh CAPN14 (11732068_a_at) / RFU TMCC2 (11721928_a_at) / Fold change /veh TMCC2 (11721928_a_at) / RFU IRGQ (11745062_a_at) / Fold change /veh IRGQ (11745062_a_at) / RFU FAM174B (11720279_a_at) / Fold change /veh FAM174B (11720279_a_at) / RFU TMPRSS4 (11748680_a_at) / Fold change /veh TMPRSS4 (11748680_a_at) / RFU FAM212B (11763350_a_at) / Fold change /veh FAM212B (11763350_a_at) / RFU PLEKHG5 (11743358_a_at) / Fold change /veh PLEKHG5 (11743358_a_at) / RFU ZSCAN30 (11745921_a_at) / Fold change /veh ZSCAN30 (11745921_a_at) / RFU CMKLR1 (11741424_a_at) / Fold change /veh CMKLR1 (11741424_a_at) / RFU LOC101060620 /// MAPK8IP1 (11723275_at) / Fold change /veh LOC101060620 /// MAPK8IP1 (11723275_at) / RFU SPTSSB (11747773_x_at) / Fold change /veh SPTSSB (11747773_x_at) / RFU PRSS12 (11739890_at) / Fold change /veh PRSS12 (11739890_at) / RFU BIN1 (11741810_x_at) / Fold change /veh BIN1 (11741810_x_at) / RFU WNT11 (11732464_a_at) / Fold change /veh WNT11 (11732464_a_at) / RFU C10orf10 (11716521_a_at) / Fold change /veh C10orf10 (11716521_a_at) / RFU C5orf56 (11738089_at) / Fold change /veh C5orf56 (11738089_at) / RFU CYB561 (11721691_x_at) / Fold change /veh CYB561 (11721691_x_at) / RFU ANKRD19P (11752326_a_at) / Fold change /veh ANKRD19P (11752326_a_at) / RFU OR2T12 /// OR2T33 /// OR2T8 (11738714_s_at) / Fold change /veh OR2T12 /// OR2T33 /// OR2T8 (11738714_s_at) / RFU VCAN (11748164_a_at) / Fold change /veh VCAN (11748164_a_at) / RFU JSRP1 (11732532_at) / Fold change /veh JSRP1 (11732532_at) / RFU KRTAP10-11 (11738290_x_at) / Fold change /veh KRTAP10-11 (11738290_x_at) / RFU MYO3A (11730013_a_at) / Fold change /veh MYO3A (11730013_a_at) / RFU EBF3 (11725865_a_at) / Fold change /veh EBF3 (11725865_a_at) / RFU CAMK2N1 (11719241_x_at) / Fold change /veh CAMK2N1 (11719241_x_at) / RFU C5orf56 (11738088_a_at) / Fold change /veh C5orf56 (11738088_a_at) / RFU OLFML3 (11715873_a_at) / Fold change /veh OLFML3 (11715873_a_at) / RFU LOC100653217 /// NTM (11731650_a_at) / Fold change /veh LOC100653217 /// NTM (11731650_a_at) / RFU MAPK11 (11762145_a_at) / Fold change /veh MAPK11 (11762145_a_at) / RFU FIZ1 (11724087_x_at) / Fold change /veh FIZ1 (11724087_x_at) / RFU OASL (11726364_x_at) / Fold change /veh OASL (11726364_x_at) / RFU SOX15 (11748057_x_at) / Fold change /veh SOX15 (11748057_x_at) / RFU CD79A (11719716_a_at) / Fold change /veh CD79A (11719716_a_at) / RFU HIST1H1D (11736915_at) / Fold change /veh HIST1H1D (11736915_at) / RFU CASKIN2 (11723855_a_at) / Fold change /veh CASKIN2 (11723855_a_at) / RFU LOC730098 (11760151_x_at) / Fold change /veh LOC730098 (11760151_x_at) / RFU OR4N2 (11742367_at) / Fold change /veh OR4N2 (11742367_at) / RFU PRRT2 (11749266_a_at) / Fold change /veh PRRT2 (11749266_a_at) / RFU SNX32 (11753110_a_at) / Fold change /veh SNX32 (11753110_a_at) / RFU CDHR5 (11726645_a_at) / Fold change /veh CDHR5 (11726645_a_at) / RFU RCAN1 (11760418_a_at) / Fold change /veh RCAN1 (11760418_a_at) / RFU FAM167A (11723789_a_at) / Fold change /veh FAM167A (11723789_a_at) / RFU FAM26E (11764081_at) / Fold change /veh FAM26E (11764081_at) / RFU ISYNA1 (11749810_s_at) / Fold change /veh ISYNA1 (11749810_s_at) / RFU ACY1 (11761880_at) / Fold change /veh ACY1 (11761880_at) / RFU 11764098_at / Fold change /veh 11764098_at / RFU SAMD14 (11745864_x_at) / Fold change /veh SAMD14 (11745864_x_at) / RFU NPB (11741838_a_at) / Fold change /veh NPB (11741838_a_at) / RFU TMPRSS6 (11731388_a_at) / Fold change /veh TMPRSS6 (11731388_a_at) / RFU KRTAP10-2 (11738614_at) / Fold change /veh KRTAP10-2 (11738614_at) / RFU ARHGAP8 /// PRR5-ARHGAP8 (11727945_x_at) / Fold change /veh ARHGAP8 /// PRR5-ARHGAP8 (11727945_x_at) / RFU KRTAP5-7 /// NADSYN1 (11734609_at) / Fold change /veh KRTAP5-7 /// NADSYN1 (11734609_at) / RFU RASL12 (11751679_a_at) / Fold change /veh RASL12 (11751679_a_at) / RFU CDKN2B (11736163_a_at) / Fold change /veh CDKN2B (11736163_a_at) / RFU PRF1 (11729649_at) / Fold change /veh PRF1 (11729649_at) / RFU, ZNF638 /// ZNF638-IT1 / Fold change vs veh, ZNF638 /// ZNF638-IT1 / RFU, PANK3 / Fold change vs veh, PANK3 / RFU, SH3YL1 / Fold change vs veh, SH3YL1 / RFU, ZEB2 / Fold change vs veh, ZEB2 / RFU, NRIP1 / Fold change vs veh, NRIP1 / RFU, PTTG1IP / Fold change vs veh, PTTG1IP / RFU, CAPN2 / Fold change vs veh, CAPN2 / RFU, MED14 / Fold change vs veh, MED14 / RFU, SNORA58 / Fold change vs veh, SNORA58 / RFU, C1orf63 / Fold change vs veh, C1orf63 / RFU, LRRFIP1 / Fold change vs veh, LRRFIP1 / RFU, NDUFAF7 / Fold change vs veh, NDUFAF7 / RFU, SLC12A2 / Fold change vs veh, SLC12A2 / RFU, IBTK / Fold change vs veh, IBTK / RFU, ESF1 / Fold change vs veh, ESF1 / Fold change vs veh, TMEM50B / RFU, TAOK1 / Fold change vs veh, TAOK1 / RFU, ACBD3 / Fold change vs veh, ACBD3 / RFU, TMA16 / Fold change vs veh, TMA16 / RFU, RWDD3 / Fold change vs veh, RWDD3 / RFU, BCAT1 / Fold change vs veh, BCAT1 / RFU, EDEM3 / Fold change vs veh, EDEM3 / RFU, TMEM33 / Fold change vs veh, TMEM33 / RFU, WDR75 / Fold change vs veh, WDR75 / RFU, AHCTF1 / Fold change vs veh, AHCTF1 / RFU, TFRC / Fold change vs veh, TFRC / RFU, ZDHHC17 / Fold change vs veh, ZDHHC17 / RFU, NOM1 / Fold change vs veh, NOM1 / RFU, ARL8B / Fold change vs veh, ARL8B / RFU, ZBTB11 / Fold change vs veh, ZBTB11 / RFU, TAMM41 / Fold change vs veh, TAMM41 / RFU, KIAA1704 /// LOC100996395 / Fold change vs veh, KIAA1704 /// LOC100996395 / RFU, ING1 / Fold change vs veh, ING1 / RFU, TRMT61B / Fold change vs veh, TRMT61B / RFU, FUBP3 / Fold change vs veh, FUBP3 / RFU, TP53 / Fold change vs veh, TP53 / RFU, TNKS2 / Fold change vs veh, TNKS2 / RFU, ZFP14 / Fold change vs veh, ZFP14 / RFU, ACTR2 / Fold change vs veh, ACTR2 / RFU, PPP3R1 / Fold change vs veh, PPP3R1 / RFU, PIK3R1 / Fold change vs veh, PIK3R1 / RFU, HNRNPA1 / Fold change vs veh, HNRNPA1 / RFU, RNF170 / Fold change vs veh, RNF170 / RFU, ZNF28 / Fold change vs veh, ZNF28 / RFU, RNGTT / Fold change vs veh, RNGTT / RFU, OGT / Fold change vs veh, OGT / RFU, BRD1 / Fold change vs veh, BRD1 / RFU, MARS / Fold change vs veh, MARS / RFU, ZNF655 / Fold change vs veh, ZNF655 / RFU, FAHD1 / Fold change vs veh, FAHD1 / RFU, BDP1 / Fold change vs veh, BDP1 / RFU, LRRCC1 / Fold change vs veh, LRRCC1 / RFU, ARID1A / Fold change vs veh, ARID1A / RFU, ZNF146 / Fold change vs veh, ZNF146 / RFU, ZNF330 / Fold change vs veh, ZNF330 / RFU, GPN3 / Fold change vs veh, GPN3 / RFU, C9orf123 / Fold change vs veh, C9orf123 / RFU, N4BP2L2 / Fold change vs veh, N4BP2L2 / RFU, ARFIP1 / Fold change vs veh, ARFIP1 / RFU, FAM179B / Fold change vs veh, FAM179B / RFU, BCL10 / Fold change vs veh, BCL10 / RFU, UHRF1BP1L / Fold change vs veh, UHRF1BP1L / RFU, BET1 / Fold change vs veh, BET1 / RFU, CNOT2 / Fold change vs veh, CNOT2 / RFU, ZNF268 / Fold change vs veh, ZNF268 / Fold change vs veh, ZNF507 / RFU, DGCR2 / Fold change vs veh, DGCR2 / RFU, WDSUB1 / Fold change vs veh, WDSUB1 / Fold change vs veh, HSP90B1 /// MIR3652 / RFU, ADSS / Fold change vs veh, ADSS / RFU, GK / Fold change vs veh, GK / RFU, ZNF148 / Fold change vs veh, ZNF148 / RFU, TAF9 / Fold change vs veh, TAF9 / RFU, SLC1A5 / Fold change vs veh, SLC1A5 / RFU, SLMO2 / Fold change vs veh, SLMO2 / RFU, ABCC4 / Fold change vs veh, ABCC4 / RFU, LOC101060439 /// RAP1B / Fold change vs veh, LOC101060439 /// RAP1B / RFU, RFX7 / Fold change vs veh, RFX7 / RFU, GTPBP10 / Fold change vs veh, GTPBP10 / RFU, CNEP1R1 / Fold change vs veh, CNEP1R1 / RFU, BIVM-ERCC5 /// ERCC5 / Fold change vs veh, BIVM-ERCC5 /// ERCC5 / RFU, ILF3 / Fold change vs veh, ILF3 / RFU 11762660_at / Fold change /veh 11762660_at / RFU VCAN (11757783_s_at) / Fold change /veh VCAN (11757783_s_at) / RFU DDX43 (11728927_at) / Fold change /veh DDX43 (11728927_at) / RFU KRT8 (11758188_x_at) / Fold change /veh KRT8 (11758188_x_at) / RFU NKD1 (11759106_at) / Fold change /veh NKD1 (11759106_at) / RFU SRD5A1 (11742802_a_at) / Fold change /veh SRD5A1 (11742802_a_at) / RFU TPSAB1 /// TPSB2 (11721975_s_at) / Fold change /veh TPSAB1 /// TPSB2 (11721975_s_at) / RFU GSTM3 (11746129_a_at) / Fold change /veh GSTM3 (11746129_a_at) / RFU IL23R (11737362_x_at) / Fold change /veh IL23R (11737362_x_at) / RFU TMEM51 (11727254_a_at) / Fold change /veh TMEM51 (11727254_a_at) / RFU PIWIL2 (11732686_x_at) / Fold change /veh PIWIL2 (11732686_x_at) / RFU ORM1 (11744905_x_at) / Fold change /veh ORM1 (11744905_x_at) / RFU CCDC152 (11743942_at) / Fold change /veh CCDC152 (11743942_at) / RFU ECM1 (11717891_a_at) / Fold change /veh ECM1 (11717891_a_at) / RFU IL23R (11748794_a_at) / Fold change /veh IL23R (11748794_a_at) / RFU TNFAIP8L3 (11732012_x_at) / Fold change /veh TNFAIP8L3 (11732012_x_at) / RFU MBOAT4 (11741988_at) / Fold change /veh MBOAT4 (11741988_at) / RFU 11764193_at / Fold change /veh 11764193_at / RFU TMEM53 (11763286_at) / Fold change /veh TMEM53 (11763286_at) / RFU MAGEB2 (11727129_at) / Fold change /veh MAGEB2 (11727129_at) / RFU TMEM200A (11744735_a_at) / Fold change /veh TMEM200A (11744735_a_at) / RFU CCDC152 (11751479_a_at) / Fold change /veh CCDC152 (11751479_a_at) / RFU FAM211A (11726209_a_at) / Fold change /veh FAM211A (11726209_a_at) / RFU RGS16 (11746705_a_at) / Fold change /veh RGS16 (11746705_a_at) / RFU VCAN (11755009_s_at) / Fold change /veh VCAN (11755009_s_at) / RFU RHOB (11743442_s_at) / Fold change /veh RHOB (11743442_s_at) / RFU RGS16 (11720943_a_at) / Fold change /veh RGS16 (11720943_a_at) / RFU RGS16 (11720944_at) / Fold change /veh RGS16 (11720944_at) / RFU, VPS4B / Fold change vs veh, VPS4B / RFU, CREB1 / Fold change vs veh, CREB1 / RFU, DNAJC13 / Fold change vs veh, DNAJC13 / RFU, GNAQ / Fold change vs veh, GNAQ / RFU, CDK5R1 / Fold change vs veh, CDK5R1 / RFU, ZRANB3 / Fold change vs veh, ZRANB3 / RFU, CUL4A / Fold change vs veh, CUL4A / RFU, CCNY / Fold change vs veh, CCNY / RFU, UFL1 / Fold change vs veh, UFL1 / RFU, COG3 / Fold change vs veh, COG3 / RFU, DIAPH2 / Fold change vs veh, DIAPH2 / RFU, SKA2 / Fold change vs veh, SKA2 / RFU, AFF3 / Fold change vs veh, AFF3 / RFU, LMF1 / Fold change vs veh, LMF1 / RFU, IPO11 / Fold change vs veh, IPO11 / RFU, DFFB / Fold change vs veh, DFFB / RFU, FOXP1 / Fold change vs veh, FOXP1 / RFU, CARD8 / Fold change vs veh, CARD8 / RFU, STRN3 / Fold change vs veh, STRN3 / RFU, ADK / Fold change vs veh, ADK / RFU, RASSF2 / Fold change vs veh, RASSF2 / RFU, WIPF1 / Fold change vs veh, WIPF1 / RFU, LARP1B / Fold change vs veh, LARP1B / RFU, RASA1 / Fold change vs veh, RASA1 / RFU, RB1 / Fold change vs veh, RB1 / RFU, PPFIA1 / Fold change vs veh, PPFIA1 / RFU, MAT2A / Fold change vs veh, MAT2A / RFU, CCT5 / Fold change vs veh, CCT5 / RFU, WDR92 / Fold change vs veh, WDR92 / RFU, CUX1 / Fold change vs veh, CUX1 / RFU, TTC7A / Fold change vs veh, TTC7A / RFU, TMEM135 / Fold change vs veh, TMEM135 / RFU, DEPTOR / Fold change vs veh, DEPTOR / RFU, CPM / Fold change vs veh, CPM / RFU, DNAJB6 / Fold change vs veh, DNAJB6 / RFU, CACNA2D3 / Fold change vs veh, CACNA2D3 / RFU, DTX4 / Fold change vs veh, DTX4 / RFU, TFCP2 / Fold change vs veh, TFCP2 / RFU, GMCL1 /// GMCL1P1 / Fold change vs veh, GMCL1 /// GMCL1P1 / RFU, AEBP2 / Fold change vs veh, AEBP2 / RFU, SNHG1 /// SNORD22 /// SNORD25 /// SNORD26 /// SNORD27 /// SNORD28 /// SNORD29 /// SNORD31 / Fold change vs veh, SNHG1 /// SNORD22 /// SNORD25 /// SNORD26 /// SNORD27 /// SNORD28 /// SNORD29 /// SNORD31 / Fold change (Aza/veh), C12orf56 (ProbeSet 11735607_a_at) / Fold change (ACY-1035/veh), C12orf56 (ProbeSet 11735607_a_at) / Fold change (Aza/veh), FGFR1OP (ProbeSet 11751329_s_at) / Fold change (ACY-1035/veh), FGFR1OP (ProbeSet 11751329_s_at) / Fold change (Aza/veh), VPS36 (ProbeSet 11739960_a_at) / Fold change (ACY-1035/veh), VPS36 (ProbeSet 11739960_a_at) / RFU SYPL1 (11715823_x_at) / Fold change /veh SYPL1 (11715823_x_at) / RFU IGFBP7 (11715501_s_at) / Fold change /veh IGFBP7 (11715501_s_at) / RFU REEP3 (11722064_at) / Fold change /veh REEP3 (11722064_at) / RFU IGLL1 (11728026_x_at) / Fold change /veh IGLL1 (11728026_x_at): dose or concentration left out as unconfirmed
# Conditions: ProbeSet 11725100_s_at; LIST B
compound,measurement,value
Nc1ncn([C@@H]2O[C@H](CO)[C@@H](O)[C@H]2O)c(=O)n1 [azacitidine],"Fold change vs veh, ESF1",0.96
